Consider 10 compounds from patent US4073942A, “Halo-substituted hydroxybenzyl-amines as secretolytic agents” (Boehringer Ingelheim GmbH, priority 1972, dated 1978).

The structures appear in SMILES notation. Counter-ions that a name gives are not always drawn.

Holding throughout (assay type): in vivo
The subject of series [1] is secretion in anesthetized rabbits or guinea pigs. Description: Expectorant effect: secretolytic activity, increase of secretion within 2 hours after oral application. The conditions noted are these: 8 mgm/kg oral. As to the method: The increase of secretion within 2 hours was calculated before and after application of the substance see Perry and Boyd in Pharmakol. exp. Therap. 73, 65 (1941)!.

Series [2] in a line: Acute toxicity after oral application, 72 hours observation. The conditions noted are these: mouse, in vivo, po. Here is the method: (§1) The acute toxicity was determined on groups of 5 white mice after oral application of a dose ranging between 500 mgm/kg and 5000 mgm/kg per animal (time of observation: 72 hours).
For another series, the system named is white mice. The description is as above. To be noted: white mice, 72 hours. Here is the method: as §1
Series [3] deals with coughs induced by citric acid spray in awake white rats. Description: Antitussive activity: change in number of citric acid-induced coughs after oral application. To be noted: 50 mgm/kg oral, compared to control group.
The next series deals with cats. Description: Circulatory effect in cats under chloralose-urethane narcosis after intravenous application. The conditions noted are these: 3 animals per dose. As to the method: The circulatory effect in cats was determined under chloralose-urethane narcosis after intravenous application of the test compound (3 animals per dose).
In series [4] the test system is stomach ulcers in female rats. Description: Anti-ulcerogenic activity: acetic acid-induced stomach ulcers. The conditions noted are these: three weeks. Here is the method: The standard pharmacological test method of […] et al, Jap. J. Pharmac. 19, 418 (1969), was used. The abdominal cavity of female rats having a body weight of 220 to 350 gm under ether anesthesia was opened, and the stomach was exposed. […] The controls received only pulverized rat food. After three weeks, the animals were sacrificed, their stomachs were excised, and the size of the ulcer was determined by measuring its length and width.

Setting [5] is: white mice, 72 hours observation.

In the case of `CN(Cc1cc(Cl)c(O)c(Br)c1)C1CCCCC1.Cl` [E, n-methyl-N-cyclohexyl-3-bromo-5-chloro-4-hydroxy-benzylamine hydrochloride], the change in vivo at 8 mg/kg in series [1] turned out to be 65%. Also, in series [2] (setting [5]), the LD50 (commonly the dose expected to kill half of the subjects tested) at 72 h was more than 500 mg/kg. Moreover, the animals dead with white mice (500 mgm/kg p.o.) is given as 0 of 5.

In series [1], `CC(CO)(CO)NCc1cc(Cl)c(O)c(Cl)c1` [H, N-(dihydroxy-tert.butyl)-3,5-dichloro-4-hydroxy-benzylamine hydrochloride] displayed a change in vivo at 8 mg/kg of 88%.

In the case of `CCN(Cc1cc(Br)cc(Br)c1O)C1CCCCC1` [Compound A, N-ethyl-N-cyclohexyl-(3,5-dibromo-2-hydroxy)-benzylamine hydrochloride], in series [3], the “Average change in the number of coughs, in per cent, 30 minutes after oral application of 50 mgm/kg” value is listed as -38%. For the same compound, the change in vivo at 8 mg/kg in series [1] is 81%. For the same compound, the “Circulatory effect in cats” value in the series on cats (4 mgm/kg) is reported as “no change”. Besides, the “% change in ulcer size versus controls” value in series [4] (50 mgm/kg p.o. in daily food) was -39%; in series [4] (100 mgm/kg p.o. in daily food), -54%. The compound also displayed an LD50 at 72 h in series [2] of more than 1000 mg/kg. Besides, the animals dead in the series on white mice (1000 mgm/kg p.o.) is 0 of 5.

In the case of `CCN(Cc1cc(Br)c(O)c(Br)c1)C1CCCCC1` [B, N-ethyl-N-cyclohexyl-3,5-dibromo-4-hydroxy-benzylamine], the “Average change in the number of coughs, in per cent, 30 minutes after oral application of 50 mgm/kg” value in series [3] is reported as -34%. Moreover, the change in vivo at 8 mg/kg in series [1] was found to be 87%. For the same compound, in the series on cats (8 mgm/kg), the “Circulatory effect in cats” value is “no change”. The compound also yielded a 50% lethal dose (LD50) at 72 h in series [2] (setting [5]) of more than 1000 mg/kg. Further, the animals dead in the series with white mice (1000 mgm/kg p.o.) was 0 of 5.

`CCC(C)(C)NCc1cc(Br)cc(Br)c1O.Cl` [Compound I, N-tert.pentyl-3,5-dibromo-2-hydroxy-benzylamine hydrochloride] came in with a change in vivo at 8 mg/kg in series [1] of 80%. Moreover, the median lethal dose (LD50) at 72 h in series [2] (setting [5]) is more than 5000 mg/kg. Besides, the animals dead with white mice (5000 mgm/kg p.o.) was 0 of 5.

Consider `Cl.Oc1c(Br)cc(CN[C@H]2CCC[C@@H](O)C2)cc1Br` (relative stereo) [C, N-(cis-3'-hydroxy-cyclohexyl)-3,5-dibromo-4-hydroxy-benzylamine hydrochloride], for which the “Average change in the number of coughs, in per cent, 30 minutes after oral application of 50 mgm/kg” value in series [3] was -35%. For the same compound, the results for the “% change in ulcer size versus controls” value in series [4] (50 mgm/kg p.o. in daily food) and in series [4] (100 mgm/kg p.o. in daily food) were -11% and -29%, respectively. This compound also showed a 50% lethal dose (LD50) at 72 h in series [2] (setting [5]) of more than 1000 mg/kg. The animals dead with white mice (1000 mgm/kg p.o.) is 0 of 5.

`Oc1c(Br)cccc1CN[C@H]1CC[C@H](O)CC1` [D, N-(trans-4'-hydroxy-cyclohexyl)-3-bromo-2-hydroxy-benzylamine] showed a change in vivo at 8 mg/kg in series [1] of 66%. Also, the LD50 at 72 h in series [2] (setting [5]) is more than 500 mg/kg. In addition, the animals dead in the series with white mice (500 mgm/kg p.o.) was 0 of 5.

In series [1], `CC(CO)(CO)NCc1cc(Br)cc(Br)c1O` [G, N-(dihydroxy-tert.butyl)-3,5-dibromo-2-hydroxy-benzylamine hydrochloride] gave a change in vivo at 8 mg/kg of 88%. This compound showed an LD50 at 72 h in series [2] (setting [5]) of more than 5000 mg/kg. Further, the animals dead in the series on white mice (5000 mgm/kg p.o.) is reported as 0 of 5.

Regarding `CN(Cc1cc(Br)cc(Br)c1O)C1CCCCC1` [J, N-methyl-N-cyclohexyl-(3,5-dibromo-2-hydroxy)-benzylamine hydrochloride], the “% change in ulcer size versus controls” value was -73% in series [4] (50 mgm/kg p.o. in daily food) and -82% in series [4] (100 mgm/kg p.o. in daily food). Also, the LD50 at 72 h in series [2] (setting [5]) is more than 5000 mg/kg. Moreover, the animals dead in the series with white mice (5000 mgm/kg p.o.) is on record as 1 of 5.

As for `Oc1c(Br)cc(Br)cc1CN[C@H]1CC[C@H](O)CC1` [F, N-(trans-4'-hydroxy-cyclohexyl)-3,5-dibromo-2-hydroxy-benzylamine], in series [1], the change in vivo at 8 mg/kg is 70%. In addition, the entries for the “% change in ulcer size versus controls” value in series [4] (50 mgm/kg p.o. in daily food) and in series [4] (100 mgm/kg p.o. in daily food) were -59% and -78%, respectively. Besides, the median lethal dose (LD50) at 72 h in series [2] (setting [5]) is more than 5000 mg/kg. The animals dead in the series on white mice (5000 mgm/kg p.o.) was 0 of 5.
